Reference: patent US20150119410A1, “BIOMARKERS OF RESPONSE TO NAE INHIBITORS” (MILLENNIUM PHARMACEUTICALS, INC., priority 2011, published 2015)

Legend:
Type in all cases: cell-based
CAL-27 [1] = assay: Cell line panel 2 high-content screen; details: Homo sapiens; CAL-27 (upper aerodigestive tract); 72 hours
Method: (§1) To support clinical development and identify potential biomarkers of tumor sensitivity or resistance, two large cancer cell line panels (Panel 1, N=653 (McDermott et al. (2007) PNAS 104:19936-19941); Panel 2, N=240 (O'Day et al. (2010) Fourth AACR International Conference on Molecular Diagnostics in Cancer Therapeutic Development)) were treated with MLN4924 and cell viability data (IC50, EC50, and POC—Percentage of Control) were generated.
(§2) Panel 2 (Ricerca Biosciences, Inc., Bothell, Wash.). MLN4924 was added in half-log dilutions for 10 concentrations and treated for 72 hours. High-content cell screening by fluorescence microscopy included image analysis to generate several types of data. Results included EC50 values (after measurement of cell numbers, the EC50 concentration was calculated from the inflection point of a curve of percent of control (POC) against log of MLN4924 concentration), IC50 values (from the POC-log MLN4924 plot, IC50 is the concentration at 50% maximal possible response), apoptosis (measurement of activation of caspase 3 plotted against log of MLN4924 concentration, determined as the concentration for >5 fold induction), and mitotic activity (determined by measuring the fold increase of phospho-histone 3). A comparison of EC50 to IC50 (FIG. 3) allowed assignment of cell lines to sensitive, insensitive or resistant. Final identification of a cell line as sensitive or resistant was based on the EC50 values. The cutoff for sensitivity is a median EC50 of less than the median value of all POC's recorded in the panel (<0.36), borderline sensitivity was associated with median EC50 of 0.36 to 1.67 and insensitive or resistant cell lines were identified by EC50 greater than the 3rd quartile of all POC's in the panel (>1.67).

COLO320 HSR = assay: Cell line panel 2 high-content screen; details: Homo sapiens, COLO-320-HSR; COLO320 HSR (intestine); 72 hours
Method: as §1, §2

CAL-27 [2] = assay: Cell line panel 1 viability screen; details: CAL-27 (upper aerodigestive tract)
Method: as §1
(§3) Panel 1 (McDermott et al., supra). The cell lines were exposed to three MLN4924 concentrations (20 nM, 200 nM, and 2 μM) for 72 hours. Viability, i.e., cell number, was quantified by measuring fluorescence of a cell-permeant nucleic acid stain. Mean of triplicate values for each sample were taken and compared to DMSO control to calculate percentage of control. In the results, control or no activity value is given a value of about 1, sensitivity is indicated by a value less than 1, with 0 as death of the entire cell population and resistance indicated by a value greater than 1. A continuum of viability values was obtained for each concentration, so some values were selected as cut-offs for final determination of sensitivity or resistance. For example, median POC values of less than the median value of all POC's recorded in the panel (<0.34) indicated sensitivity, values of 0.34 to 0.75 indicated borderline sensitivity, values greater than the 3rd quartile of all POC's in the panel (>0.75) insensitivity or resistance. […] Final judgment of cell line as sensitive, insensitive or resistant was determined by its viability at 2 μM.

CAL-62 = assay: Cell line panel 1 viability screen; details: CAL-62 (thyroid)
Method: as §1, §3

CAPAN-1 = assay: Cell line panel 1 viability screen; details: CAPAN-1 (pancreas)
Method: as §1, §3

HuCCT1 = assay: Cell line panel 1 viability screen; details: HuCCT1 (Liver)
Method: as §1, §3

MDA-MB-231 = assay: Cell line panel 1 viability screen; details: MDA-MB-231 (breast)
Method: as §1, §3

KYSE-180 = assay: Cell line panel 1 viability screen; details: KYSE-180 (oesophagus)
Method: as §1, §3

C2BBe1 = assay: Cell line panel 1 viability screen; details: Homo sapiens; C2BBe1 (intestine); 2 μM MLN4924, 72 hours; DMSO control about 1
Method: as §1, §3

SW1573 = assay: Cell line panel 1 viability screen; details: SW1573 (lung)
Method: as §1, §3

AsPC-1 = assay: Cell line panel 1 viability screen; details: AsPC-1 (Pancreas)
Method: as §1, §3

SW626 = assay: Cell line panel 1 viability screen; details: Homo sapiens; SW626 (ovary); 2 μM MLN4924, 72 hours; DMSO control about 1
Method: as §1, §3

SW 1463 = assay: Cell line panel 1 viability screen
Method: as §1, §3

ACHN = assay: Cell line panel 1 viability screen; details: ACHN (kidney)
Method: as §1, §3

NCl-H1581 = assay: Cell line panel 1 viability screen; details: NCl-H1581 (lung NSCLC); 2 μM MLN4924, 72 hours; DMSO control about 1
Method: as §1, §3

MKN45 = assay: Cell line panel 1 viability screen; details: MKN45 (stomach)
Method: as §1, §3

LK-2 = assay: Cell line panel 1 viability screen; details: Homo sapiens; LK-2 (lung); 2 μM MLN4924, 72 hours; DMSO control about 1
Method: as §1, §3

GAMG = assay: Cell line panel 1 viability screen; details: GAMG (central nervous system)
Method: as §1, §3

[3] = Homo sapiens, 2 μM MLN4924, 72 hours, DMSO control about 1

NS(=O)(=O)OC[C@@H]1C[C@@H](n2ccc3c(N[C@H]4CCc5ccccc54)ncnc32)C[C@@H]1O [MLN4924, ((1S,2S,4R)-4-{4-[(1S)-2,3-dihydro-1H-inden-1-ylamino]-7H-pyrrolo[2,3-d]pyrimidin-7-yl}-2-hydroxycyclopentyl)methyl sulphamate]
EC50 (CAL-27 [1]): 139 nM
EC50 (COLO320 HSR): 1780 nM
Phenotype (CAL-27 [2]; SMAD4 mutant): sensitive (median POC values of less than the median value of all POC's recorded in the panel (<0.34) indicated sensitivity)
viability at 2 µM (CAL-27 [2]; [3]): 2.71%
Phenotype (CAL-62; NF2 mutant): sensitive (median POC values of less than the median value of all POC's recorded in the panel (<0.34) indicated sensitivity)
viability at 2 µM (CAL-62; [3]): 6.76%
Phenotype (CAPAN-1; SMAD4 mutant): sensitive?
viability at 2 µM (CAPAN-1; [3]): 14.7%
viability at 2 µM (HuCCT1; Homo sapiens, HuCCT-1, 2 μM MLN4924, 72 hours, DMSO control about 1): 12.6%
Phenotype (HuCCT1; FBXW7 mutant): sensitive (median POC values of less than the median value of all POC's recorded in the panel (<0.34) indicated sensitivity)
viability at 2 µM (MDA-MB-231; [3]): 52.8%
Phenotype (MDA-MB-231; NF2 mutant): insensitive (values of 0.34 to 0.75 indicated borderline sensitivity)
viability at 2 µM (KYSE-180; [3]): 21.5%
Phenotype (KYSE-180; KDM6A mutant): sensitive (median POC values of less than the median value of all POC's recorded in the panel (<0.34) indicated sensitivity)
viability at 2 µM (C2BBe1): 71.6%
viability at 2 µM (SW1573; [3]): 11.1%
Phenotype (SW1573; NF2 and SMAD4 mutant): sensitive (median POC values of less than the median value of all POC's recorded in the panel (<0.34) indicated sensitivity)
Phenotype (AsPC-1; FBXW7 mutant): resistant (values greater than the 3rd quartile of all POC's in the panel (>0.75) insensitivity or resistance)
viability at 2 µM (AsPC-1; Homo sapiens, ASPC1, 2 μM MLN4924, 72 hours, DMSO control about 1): 98.9%
viability at 2 µM (SW626): 55.4%
viability at 2 µM (SW 1463; Homo sapiens, SW 1463 / SW1463 (intestine), 2 μM MLN4924, 72 hours, DMSO control about 1): 89.6%
Phenotype (SW 1463; SW1463 (Intestine), FBXW7 mutant): resistant (values greater than the 3rd quartile of all POC's in the panel (>0.75) insensitivity or resistance)
Phenotype (ACHN; NF2 mutant): sensitive (median POC values of less than the median value of all POC's recorded in the panel (<0.34) indicated sensitivity)
viability at 2 µM (ACHN; [3]): 6.21%
viability at 2 µM (NCl-H1581): 73.7%
viability at 2 µM (MKN45; Homo sapiens, MKN-45, 2 μM MLN4924, 72 hours, DMSO control about 1): 36.1%
Phenotype (MKN45; SMAD4 mutant): insensitive (values of 0.34 to 0.75 indicated borderline sensitivity)
viability at 2 µM (LK-2): 28.9%
Phenotype (GAMG; SMAD4 mutant): sensitive (median POC values of less than the median value of all POC's recorded in the panel (<0.34) indicated sensitivity)
viability at 2 µM (GAMG; [3]): 7.21%
